Reference: a melting point compilation (Tetko et al.; mined from patent text by program, amines drawn as free bases though some values may be those of a salt)

melting point	Structure (SMILES)
191 to 192 °C	Fc1ccc(-c2ccn(C3CCNCC3)c2-c2ccncc2)cc1
97 to 98 °C	O=C1O[C@@H](COc2cnsn2)CN1c1ccc(N2C[C@@H]3C[C@H]2CN3Cc2ccccc2)c(F)c1
115 to 118 °C	CN1CCCCCC1=NC(=O)Nc1cccc(Cl)c1
283 to 286 °C	Cc1[nH]c(=O)[nH]c1C(=O)c1ccc(N2CCOCC2)cc1
149 to 150 °C	CN(C)CCCn1c2c(c3cc(C(=O)O)ccc31)CCCCCC2
120 °C	Cc1cc2c(s1)CNCC2O (configuration not stated)
88 °C	Cc1nc(C#Cc2ccccc2)n(C)c1-c1nc(C2CC2)no1
120 to 121 °C	COc1cc2c(c(OC)c1)C1=C(CC2)C2=CCC(=O)C2(C)CC1 (configuration not stated)
160 to 162 °C	COc1ccc(C(=O)C2Cc3cc(OC)ccc3C2=O)cc1 (configuration not stated)
148 °C	CC(C)C1(C)Cc2cc(OCC(=O)O)c(Cl)c(Cl)c2C1=O (configuration not stated)
160 to 161 °C	COc1cc(OC)c(NC(=O)CBr)c(OC)c1
144 to 146 °C	COC(=O)c1ccc(Cc2cn(C)c3ccc([N+](=O)[O-])cc23)c(OC)c1
215 to 225 °C	NC(=O)Cn1cc(C(=O)c2ccn3c2CSC3c2cccnc2)c2ccc(-c3ccc(F)cc3)cc21 (configuration not stated)
216 °C	CC1(C(F)(F)F)OC(=O)Nc2ccc(Cl)cc21 (configuration not stated)
171 to 173 °C	CC(C)(C)OC(=O)Cn1c(=O)c(-c2c(Cl)cccc2Cl)cc2cnc(N)nc21
203 to 207 °C	CC(C)(C)OC(=O)N1CCC(c2nc3cc(-c4ccc(-n5cnnn5)cc4F)ccc3o2)CC1

melting point	Structure (SMILES)
83 to 84 °C	C#Cc1cncc(C2CCC(=O)N2C)c1 (configuration not stated)
145 to 147 °C	CC1CCN(C(=O)NCCc2ccc(S(=O)(=O)NC(=O)NC3CCC(C)C3)cc2)C(=O)C1 (configuration not stated)
117 to 119 °C	O=C(NC1CCN(CCCc2ccc(F)cc2)CC1)C1=Cc2cnc3cccc(n23)S1
257 to 258 °C	CCN(c1cc2c3c(c1)CCCC3(C)CCC2)c1ncc(C(=O)O)cn1
205 to 207 °C	CNc1nc(-c2cccc(NC(=O)C3CC3)c2)c2cc(OC)c(OC)cc2n1
81.5 to 84 °C	O=C(NCCN1CCCC1)N1CCN(c2ccccc2)CC1
157 to 159 °C	Nc1ccc2oc(-c3cccc(O)c3)cc(=O)c2c1
120 to 122 °C	Cc1ccc(N)c(C(=O)NCC(C)Cn2ccnc2)c1 (configuration not stated)
143 to 145 °C	Cc1cc(NC(=O)CN2CCN(c3ccccc3C#N)CC2)ccc1Br
116 to 117 °C	COc1cc2c(c(Cl)c1Cl)C(=O)C(C1CCCC1)C2 (configuration not stated)
135 °C	CC[C@@H](CN1CCCc2cc(Br)ccc21)NS(=O)(=O)c1c(C)cc(C)cc1C
132 to 133 °C	N#CNc1cccc2ccccc12
145 °C	Cn1c(=O)c(C(=O)NC2CCCCC2)c(O)c2ccccc21
191 to 193 °C	Cc1ccc(Oc2c(N3C(C)CCC3C)cc(C(=O)O)cc2S(N)(=O)=O)cc1 (configuration not stated)
122 to 124 °C	O=C(c1ccc(F)c(F)c1Nc1ccc(I)cc1F)N1CC(O)CO1 (configuration not stated)

Second part, the compound before the results:

Structure (SMILES)	melting point
COCc1cc(Cl)n2nc(SCc3ccccc3)nc2n1	79 °C
Nc1ncnc2c1c(-c1ccc(Oc3ccccc3)cc1)cn2C1CCOCC1	193 to 194 °C
COC(=O)C(=O)c1ccc(OCOc2ccccc2)cc1	52 to 54 °C
O=C(N=C1SCCN1Cc1ccc(Cl)nc1)c1ccccc1	133 °C
CC(=O)C1=C(O)C(=C(C)Nc2ccc(N)cc2)C(=O)OC1=O	215 to 218 °C
CCCCc1oc2ccccc2c1C(O)c1ccc(-c2ccc(OCC(=O)O)cc2)cc1 (configuration not stated)	111 to 113 °C
C[Si]1(CC(CN)CC(=O)O)CCCC1 (configuration not stated)	133 to 135 °C
COc1ccc(-c2nc(C)c(C)nc2-c2ccc(OC)cc2)cc1	106 to 108 °C
CC1(C)SC(c2ccccc2OCCO[N+](=O)[O-])NC1C(=O)O (configuration not stated)	98 to 101 °C
CCC(CC)N(Cc1ccc(C(=O)O)cc1)S(=O)(=O)c1ccc(OC)cc1	86 to 87 °C
COc1ccc2ccc(S(=O)(=O)N[C@@H](CCCNC(=N)N)C(=O)N3CCC(c4ccccc4)CC3C(=O)O)cc2c1 (some centres not stated)	183 to 186 °C
COc1cc2c(cc1OC)C(c1ccco1)=NN=C(C)C2	155 to 157 °C
O=c1c2ccccc2sc2cccc(Oc3cc(Cl)cc(Cl)c3)c12	207 to 213 °C
CCNC(=O)N1C(=O)C2(CCCCC2)NC12CCCCC2	185 to 188 °C
CS(=O)(=O)c1ccc(C2=C(c3ccc(F)cc3)CC3(CCCC3)C2)cc1	142 to 143 °C
Cc1nc(C)c(Cl)c(NCc2nccc(SCCCSc3sccc3[N+](=O)[O-])c2C)n1	174 to 180 °C
CC(C)(C)c1ccc(S(=O)(=O)Nc2nc(-c3ncccn3)nc(Cl)c2-c2cccs2)cc1	130 to 132 °C
O=C(N[C@H](Cc1ccc(C(F)(F)F)cc1)[C@H](O)c1ccc(F)cc1)c1ccc(C(F)(F)F)cc1 (racemic)	162 to 163 °C
Cc1ccc(Oc2ccc([N+](=O)[O-])cc2-c2ncon2)c(O)c1	159 to 160 °C
Cc1nc(-c2c(F)cccc2Cl)nn1-c1ccc(COc2ncc(C(F)(F)F)cc2Cl)cc1	96 to 97 °C
Cc1cc(-c2nnc3c4ccccc4c(OCc4ncnn4C)nn23)no1	256 to 258 °C
O=[N+]([O-])c1cccc(C(O)C(Cl)(Cl)Cl)c1 (configuration not stated)	91 to 95 °C

Structure (SMILES)	melting point
Cc1oc(-c2ccccc2)nc1COc1ccc(CCCC2SC(=O)NC2=O)cc1C(F)(F)F (configuration not stated)	154 to 155 °C
CC[C@H](C)C(OCc1ccccc1)[C@@H]1[C@H]([N+](=O)[O-])[C@H](c2ccccc2)N[C@]1(C)C(=O)NCCC(=O)O (some centres not stated)	104 to 105 °C
CN(C)c1ccc(NC(=S)NCC(C)(C)C)cc1	174 to 176 °C
NCCCN1CCOC(c2ccccc2)(c2ccccc2)CC1	68 to 70 °C
OC(CNCCCCCCOCCCc1ccc(N2CCCCC2)cc1)c1ccc2c(n1)COC(c1ccccc1)O2 (configuration not stated)	75 to 76 °C
O=C(O)c1cn(-c2ccccc2)c2c(F)c(F)c(F)cc2c1=O	88 to 90 °C
O=CCCc1ccc2oc(Cc3ccc4ccccc4c3)nc2c1	81 to 82 °C
CN(C)C(=O)N(NC(=O)C(F)(F)F)c1ccc(Cl)cc1Cl	137 to 138 °C
COC(=O)C[C@H]1[C@H](NC(=O)OC(C)(C)C)CCN1C(=O)OCc1ccccc1 (relative stereo)	73 to 74 °C
CC(C)(CCc1cc2nc(Cl)ccc2n1S(=O)(=O)c1ccc2ncsc2c1)C(=O)O	21 °C
CNc1ccccc1CS(=O)c1nc2ncccc2[nH]1 (configuration not stated)	120 °C
CCCCCCCCC(=O)Oc1ccc(-c2ccc(C#N)cc2)cc1	43.2 to 43.6 °C
C[C@@H](NC(=O)c1ccc(-c2ccccn2)s1)[C@](O)(Cn1cncn1)c1ccc(F)cc1F	212 to 213 °C
Cc1c(-c2ccc(OC(C)C)cc2)n(Cc2ccc(OCCN3CCCCC3)cc2)c2ccc(O)cc12	120 to 125 °C
CN(CCO)C(=O)Cn1nc(-c2ccccc2O)nc1-c1ccccc1O	101 to 104 °C
O=C(NCC1CC1)c1ccc(F)c2c1CC(N(CCCc1c[nH]c3ccc(F)cc13)C1CCC1)CO2 (configuration not stated)	114 °C
Cc1sc(CCc2ccc(C=CC=C3OC(=O)NC3=O)cc2)nc1-c1ccccc1	161 to 162 °C
COc1cccc(N(CC(=O)N(C)c2ccccc2)C(=O)CNC(=O)Nc2cccc(C(C)O)c2)c1 (racemic)	115 °C
Cc1nc(C)c(-c2[nH]nc3c2C(=O)c2c(NC(=O)NN4CCOCC4)cccc2-3)s1	> 300 °C
C[C@@H](O)C1(c2onc(-c3ccc(O)cc3)c2-c2ccccc2)CC1	213 °C
CCSc1cc(C)nc(SCC)c1NC(=O)CCCCCCCCSc1nc2cccc(C(F)(F)F)c2o1	115 to 116 °C
COc1cc(C=CC=NO)ccc1OC(C)=O	72 to 74 °C

Structure (SMILES)	melting point
C=CCC(C(=O)O)c1ccccc1 (configuration not stated)	34 °C
O=S1(=O)CS(=O)(=O)OCCO1	176 to 180 °C
COC1=C(OC)C(=O)C2=C(CC(CCCOc3ccc(C(=O)N(C)C)cc3)C2)C1=O	100 to 102 °C
C1=Cc2cccnc2Nc2ncccc21	126 to 129 °C
CNC1=NS(=O)N=C1NCCSCc1csc(NC(=N)N)n1 (configuration not stated)	175 to 177 °C
CON=C(C)CCCn1c(C)nc2c(N)nc3ccccc3c21	158 to 161 °C
Cc1nc(N2CCN(Cc3ccc(OC(F)(F)F)cc3)C2=O)sc1C(=O)NCCc1ccccc1	184 to 185 °C
COc1cc(O)ccc1/C=C/c1ccc(O)cc1	192 to 194 °C
O=C1N(C(c2ccccc2)c2ccccc2)c2ccccc2C1(O)c1cc2c(cc1O)OCCCO2 (configuration not stated)	115 to 118 °C
COC(=O)[C@@](C#N)(COCc1ccccc1)[C@H](c1ccccc1OC)c1cccc2ccccc12 (relative stereo)	133 to 134 °C
O=C(Nc1ccc2ccc(Cl)nc2n1)c1ccc(F)cc1	236 °C
COc1ccc2c(c1O)C(=O)CC(c1ccc(F)cc1)=N2	60 to 62 °C
C=CCc1cc(C(=O)c2ccc(Cl)c(S(=O)(=O)N=CN(C)C)c2)c(Cl)c(Cl)c1O	190 to 193 °C
CCC(Oc1ccc(C(C)(C)CC)cc1C(C)(C)CC)C(=O)Nc1ccc(Cl)c(NC(=O)CC(=O)C(C)(C)Sc2ccccc2)c1 (configuration not stated)	73 to 75 °C
CC(CCC(=O)C(C)(C)O)C1CCC2C3CC(O)C4CC(O)CCC4(C)C3CCC12C (configuration not stated)	189 to 191 °C
O=c1n(-c2ccc(C(F)(F)F)cc2)c(=O)n2n1CC(c1ccccc1)C2c1ccc(Cl)cc1 (configuration not stated)	148 to 150 °C
CCCCc1nc(C2CCCCC2)nn1Cc1ccc(-c2ccccc2-c2nnn[nH]2)cc1	125 to 127 °C
O=C(CCC(=O)c1cccs1)Nc1cccc2cc(-c3nccs3)[nH]c12	140 to 141 °C
CC(C)(C)c1cc(SCc2ccc(C(=O)O)cc2)cc(C(C)(C)C)c1O	171 °C
O=C(O)C(S)c1cc(Cl)ccc1Cl (configuration not stated)	129 to 130 °C
O=C(Nc1ccccc1)N1CC(Oc2ccc(C(F)(F)F)cc2)C1	174 to 176 °C
COc1ccc(OC)c(Cc2n[nH]c3c2c(=O)n(-c2ccccc2)c2ncccc32)c1	248 to 250 °C
